Source: patent US20250057849A1, “ANTIVIRAL COMPOSITION COMPRISING NUCLEOSIDE ANALOGUES DERIVED FROM NUCLEIC ACID AND PHARMACEUTICALLY ACCEPTABLE SALT THEREOF” (CJ CheilJedang Corporation, priority 2021, published 2025)
Where two headings read alike, the source gives them in different places.

Key:
Marc-145 cell line = assay: Cytotoxicity (WST-1 / DAPI staining), PRRSV test cells
PCV2 = PCV2 infection inhibition in PK15 cells (qPCR); format: cell-based, Porcine Circovirus Type 2; conditions: for IC50: PK15 cells, 200 TCID50/well PCV2, after 4 days, read-out: PCV2 infection inhibition concentration IC50
Procedure: For the isolated DNA, using PCV2-specific primers (F-[…] , R-[…] ) and realtime RT-qPCR experimental method (95° C., 30 seconds 1 cycle, 95° C., 20 seconds, 56° C., 60 seconds 40 cycles), the antiviral efficacy of the materials was verified.

[1] = system: PRRSV (NA type, VR-2332 strain); assay: PRRSV infection inhibition in Marc-145 cells (immunofluorescence staining); format: cell-based, Porcine Reproductive and Respiratory Syndrome virus; conditions: for IC50: Marc-145 cells, 100 TCID50/ml PRRSV, three days after treatment, read-out: PRRSV infection inhibition concentration IC50
BRV = BRV infection inhibition in MDBK cells (RT-qPCR); format: cell-based, Bovine Rotavirus; conditions: for IC50: MDBK cells, 200 TCID50/well BRV, after 4 days, read-out: BRV infection inhibition concentration IC50
Procedure: The next day, BRV of 200 TCID50/well and inosine, xanthosine and guanosine in the dialdehyde and acyclic diol forms were treated to the cells simultaneously, and after 4 days, using commercialized Viral gene (DNA/RNA) extraction kit (iNtRON, 101410754), RNA was isolated.
For the isolated RNA, using BRV-specific primers (F-[…] , R-[…] ) and realtime RT-qPCR experimental method (95° C., 10 minutes 1 cycle, 95° C., 15 seconds, 60° C., 15 seconds, 72° C., 20 seconds 40 cycles), the antiviral efficacy of the materials was confirmed.

PK15 cell line = assay: Cytotoxicity, PK15 cell test; conditions: read-out: CC50 (Table 3, PCV2); cytotoxicity
MDCK cell line = assay: Cytotoxicity, MDCK cell tests; conditions: cytotoxicity
PRV = assay: microbe, parasite or virus in culture; format: cell-based, Porcine Rotavirus; conditions: for IC50: read-out: PRV infection inhibition concentration IC50
MDBK cell line = assay: Cytotoxicity, MDBK cell tests; conditions: cytotoxicity
[2] = system: Swine Influenza virus (SIV); assay: organism not typed; format: cell-based; conditions: for IC50: read-out: SIV infection inhibition concentration IC50
[3] = mouse, in vivo
IBV = assay: microbe, parasite or virus in culture; format: cell-based, Avian Infectious Bronchitis virus; conditions: for IC50: read-out: IBV infection inhibition concentration IC50
BVDV = BVDV infection inhibition in MDBK cells (RT-qPCR); format: cell-based, Bovine Viral Diarrhea virus; conditions: for IC50: MDBK cells, 200 TCID50/well BVDV, after 4 days, read-out: BVDV infection inhibition concentration IC50
Procedure: The next day, BVDV of 200 TCID50/well and inosine, xanthosine and guanosine in the dialdehyde and acyclic diol forms were treated to the cells simultaneously, and after 4 days, using commercialized Viral gene (DNA/RNA) extraction kit (iNtRON, 101410754), RNA was isolated.
For the isolated RNA, using BVDV-specific primers (F-[…] , R-[…] ) and realtime RT-qPCR experimental method (94° C., 10 minutes 1 cycle, 94° C., 10 seconds, 53° C., 20 seconds, 72° C., 30 seconds 35 cycles), the antiviral efficacy of the materials was verified.

[4] = system: Influenza virus (2009 pandemic strain, CA04); conditions: for abnormal lesions due to fed materials (liver, stomach, spleen, kidney, heart, small intestine, large intestine): 250 mg/kg
NDV = assay: microbe, parasite or virus in culture; format: cell-based, Avian Newcastle Disease virus; conditions: for IC50: read-out: NDV infection inhibition concentration IC50
[5] = system: PEDV (G1a type, SM98 strain); assay: PEDV infection inhibition in Vero cells (PEDV detection kit on isolated RNA); format: cell-based, Porcine Epidemic Diarrhea virus; conditions: for IC50: Vero cells, 200 TCID50/ml PEDV, after 2 days, read-out: PEDV infection inhibition concentration IC50
Procedure: The next day, PEDV (G1a type, SM98 strain) of 200 TCID50/ml and inosine, xanthosine and guanosine in the dialdehyde and acyclic diol forms were treated to the cells simultaneously, and after 2 days, using commercialized Viral gene (DNA/RNA) extraction kit (iNtRON, 101410754), RNA was isolated. For the isolated RNA, using commercialized PEDV detection kit (Mediandiagnostics, NS-PED-31), the antiviral efficacy of the materials was verified.

CPV = CPV infection inhibition in MDCK cells (qPCR); format: cell-based, Canine Parvovirus; conditions: for IC50: MDCK cells, 200 TCID50/well CPV, after 4 days, read-out: CPV infection inhibition concentration IC50 (Table 10)
Procedure: For the isolated DNA, using CPV-specific primers (F-[…] , R-[…] ) and realtime RT-qPCR experimental method (95° C., 5 minutes 1 cycle, 95° C., 10 seconds, 60° C., 30 seconds, 40 cycles), the antiviral efficacy of the materials was confirmed.

[6] = Cytotoxicity (WST-1 / DAPI staining), PRRSV test cells; conditions: monkey, Marc-145 cells (monkey kidney)
in vitro = conditions: monkey
[7] = Water solubility (stated); format: physicochemical
[8] = Cytotoxicity, PK15 cell test; conditions: pig, PK15 cells
[9] = Cytotoxicity, MDCK cell tests; conditions: dog, MDCK cells
PRRSV (NA strain) = assay: PRRS virus challenge test using piglets
[10] = Cytotoxicity, MDBK cell tests; conditions: bovine, MDBK cells
[11] = autopsy at 2 weeks, 50 mg/kg/day oral
[12] = mice, 100 MLD50 CA04, 250 mg/kg intragastric

## Nc1nc2c(ncn2[C@@H](C=O)O[C@@H](C=O)CO)c(=O)[nH]1 [Dialdehyde-guanosine, dialdehyde form of guanosine]
Marc-145 cell line; read-out: CC50 (Table 1, PRRSV), cytotoxicity, WST-1
  CC50: > 6000 µM
Marc-145 cell line; up to 1000 μM
  cytotoxicity by DAPI staining: no cytotoxicity was observed
PCV2
  IC50: 96.6 µM
[1]
  IC50: 40 µM
[1]; at 40 μM
  PRRSV infection inhibition: 50%
[1]; at 100 μM
  PRRSV infection inhibition: ≥ 90%
BRV
  IC50: 88.3 µM
PK15 cell line
  CC50: > 6000 µM
MDCK cell line; read-out: CC50 (Table 5, SIV)
  CC50: > 6000 µM
MDCK cell line; read-out: CC50 (Table 10, CPV)
  CC50: > 6000 µM
PRV
  IC50: 177 µM
MDBK cell line; read-out: CC50 (Table 8, BVDV)
  CC50: > 6000 µM
MDBK cell line; read-out: CC50 (Table 9, BRV)
  CC50: > 6000 µM
[2]; MDCK cells, 200 TCID50/well SIV, after 4 days
  IC50: 171 µM
[3]; ip, 50 mg/kg
  time when 50% of the remaining materials was measured (based on AUC values): about 6 hours
[3]; po, 250 mg/kg
  time when 50% of the remaining materials was measured (based on AUC values): about 9 hours
IBV; Vero cells, 200 TCID50/well IBV, after 4 days
  IC50: 275 µM
BVDV
  IC50: 2760 µM
[4]; mouse, in vivo
  amount of the virus remaining in the lung tissue (PCR): slightly lower
  clinical symptoms after SIV challenge: very mild symptoms
  lung lesions at autopsy: mild lung lesions
  survival rate on the 7th day: 80%
  survival rate predicted on the 8th day based on all data up to the 7th day: 60%
  weight loss after SIV challenge: very slight
  abnormal lesions due to fed materials (liver, stomach, spleen, kidney, heart, small intestine, large intestine): not observed
NDV; Vero cells, 200 TCID50/well NDV, after 3 days
  IC50: 1120 µM
[5]
  IC50: 157 µM
CPV
  IC50: 2060 µM
Vero cell line
  CC50: > 6000 µM

## O=C[C@@H](CO)O[C@H](C=O)n1cnc2c(=O)[nH]c(=O)[nH]c21 [Dialdehyde-xanthosine, dialdehyde form of xanthosine]
[6]
  CC50: > 10000 µM
PCV2; CC50/IC50
  SI (selectivity index), PCV2: >23
PCV2; Porcine circovirus 2, PK-15, 96 h
  IC50: 436 µM
In vitro
  CC50: > 10000 µM
[7]
  water solubility: slightly high
[1]; CC50/IC50
  SI (selectivity index), PRRSV: >133.3
[1]
  IC50: 75 µM
BRV; CC50/IC50
  SI (selectivity index), BRV: >198.1
BRV; Rotavirus A, 96 h
  IC50: 50.5 µM
[8]
  CC50: > 10000 µM
MDCK cell line; read-out: CC50 (Table 10, CPV)
  CC50: > 10000 µM
[9]
  CC50: > 10000 µM
PRRSV (NA strain); 50 mg/kg/day oral twice/day, 14 days
  weight gain after PRRSV infection: no delay in weight gain
PRRSV (NA strain); [11]
  PRRS virus in lung by immunohistochemistry: only a very small amount of viruses were detected
  interstitial pneumonia lesions, visual observation of lung: relatively intact lung
  virus titer in lung tissue: reduced compared to the positive control group
PRV; CC50/IC50
  SI (selectivity index), PRV: >110.9
PRV; Rotavirus C, Vero, 72 h
  IC50: ≤ 100 µM
PRV
  IC50: 90.2 µM
[10]
  CC50: > 10000 µM
MDBK cell line; read-out: CC50 (Table 9, BRV)
  CC50: > 10000 µM
[2]; CC50/IC50
  SI (selectivity index), SIV: >13.4
[2]; MDCK, 96 h
  IC50: 748 µM
[3]
  half-life tendency compared with guanosine in the dialdehyde form: shorter
[3]; ip, 50 mg/kg
  time when 50% of the remaining materials was measured (based on AUC values): about 6 hours
[3]; po, 250 mg/kg
  time when 50% of the remaining materials was measured (based on AUC values): about 6 hours
IBV; Avian coronavirus, Vero, 96 h
  IC50: 226 µM
IBV; CC50/IC50
  SI (selectivity index), IBV: >44.3
BVDV; Bovine viral diarrhea virus isolates and strains, 96 h
  IC50: 97.8 µM
BVDV; CC50/IC50
  SI (selectivity index), BVDV: >102.2
[4]; [12]
  survival rate on the 7th day: 100%
  survival rate predicted on the 8th day based on all data up to the 7th day: 100%
[4]; mouse, in vivo
  amount of the virus remaining in the lung tissue (PCR): lowest virus titer
  clinical symptoms after SIV challenge: very mild symptoms
  lung lesions at autopsy: mild lung lesions
  weight loss after SIV challenge: very slight
  abnormal lesions due to fed materials (liver, stomach, spleen, kidney, heart, small intestine, large intestine): not observed
NDV; CC50/IC50
  SI (selectivity index), NDV: >19
NDV; avian paramyxovirus 1, Vero, 72 h
  IC50: 526 µM
[5]; CC50/IC50
  SI (selectivity index), PEDV: >25.1
[5]; Porcine epidemic diarrhea virus, 48 h
  IC50: 398 µM
CPV; CC50/IC50
  SI (selectivity index), CPV: >45.2
CPV; Canine parvovirus, 96 h
  IC50: 221 µM
Vero cell line; monkey
  CC50: > 10000 µM
